Results published in patent US9062056B2, “Aza-benzimidazolone Chymase inhibitors” (Boehringer Ingelheim International GmbH, priority 2008, dated 2015).

Molecular target: T1, Chymase (Homo sapiens, UniProt P23946)
T1 sequence (P23946 22-247): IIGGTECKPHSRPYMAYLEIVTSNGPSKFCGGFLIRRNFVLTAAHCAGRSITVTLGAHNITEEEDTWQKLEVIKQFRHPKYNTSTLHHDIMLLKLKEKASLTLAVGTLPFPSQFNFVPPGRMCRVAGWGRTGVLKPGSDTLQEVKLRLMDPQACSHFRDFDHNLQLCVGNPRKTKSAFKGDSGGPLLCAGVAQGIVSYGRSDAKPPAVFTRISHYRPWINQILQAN
Assay: In vitro assay for inhibition of Chymase (rhodamine 110 peptide substrate, fluorescence)
Type: biochemical
Conditions: 500 pM chymase, 100 nM substrate, 100 μM TCEP, 1% DMSO, 28° C., 1 hour
Procedure: IN VITRO ASSAY FOR INHIBITION OF CHYMASE
Chymase assays were performed in a total volume of 15 μL in Corning black opaque 384-well microtiter plates with a non-binding surface (Corning, N.Y.). The assay buffer was comprised of 20 mM Tris HCl pH 8.0, 50 mM NaCl, 0.01% CHAPS. The test compounds were serially diluted 3-fold with neat DMSO in a 96-well polypropylene plate from a 10 mM DMSO stock to give the 10 point dose response curve. 3 μL of the resulting DMSO solution were transferred to a 384-well polypropylene plate in duplicate, and 37 μL of assay buffer was added. Chymase was added to the assay plate in 3 uL of assay buffer followed by 2 uL of the appropriate compound dilution using a PlateMate Plus (Matrix Technologies Corp., Hudson, N.H.). The reaction was initiated by the addition of 10 uL rhodamine 110, bis-(succinoyl-L-alanyl-L-alanyl-L-prolyl-L-phenylalanylamide) (American Peptides, Sunnyvale, Calif.) in assay buffer containing 150 μM tris(2-carboxyethyl)phosphine (TCEP, Pierce Chemical, Rockford, Ill.) using a Multidrop (Thermo Electron Corp., Waltham, Mass.). Final assay concentrations were 500 pM chymase, 100 nM substrate, 100 μM TCEP, and 1% DMSO. The plates were incubated at 28° C. and 80% humidity for 1 hour, at which time the fluorescence was read on a Viewlux 1430 Microplate Imager (Perkin Elmer Life Sciences, Boston, Mass.) with 485 nm excitation, 530 nm emission, and a fluorescein dichroic mirror. The percentage of control values were calculated relative to assay blanks containing complete reaction minus chymase and a 100% control containing assay buffer with 1% DMSO in place of compound. IC50 values were obtained by fitting the data using XLFit4 (IDBS Software).

Compound	IC50
CCC[C@@H](CC(=O)NS(=O)(=O)c1cn(C)cn1)n1c(=O)n(Cc2cn(C)c3cccc(C)c23)c2cccnc21 [1-Methyl-1H-imidazole-4-sulfonic acid {(S)-3-[1-(1,4-dimethyl-1H-indol-3-ylmethyl)-2-oxo-1,2-dihydro-imidazo[4,5-b]pyridin-3-yl]-hexanoyl}-amide]	6.71 nM
CCCC(Cn1c(=O)n(Cc2cn(C)c3cccc(C)c23)c2cccnc21)C(=O)O (stereo not drawn) [2-[1-(1,4-Dimethyl-1H-indol-3-ylmethyl)-2-oxo-1,2-dihydro-imidazo[4,5-b]pyridin-3-ylmethyl]-pentanoic acid]	3 nM
CCCC(CC(=O)O)n1c(=O)n(Cc2cn(C)c3cc(C)cc(C)c23)c2ccc(C(N)=O)nc21 (stereo not drawn) [3-[5-Carbamoyl-2-oxo-1-(1,4,6-trimethyl-1H-indol-3-ylmethyl)-1,2-dihydro-imidazo[4,5-b]pyridin-3-yl]-hexanoic acid]	1.93 nM
CCCC(CC(=O)O)n1c(=O)n(Cc2cn(C)c3cccc(C)c23)c2ccc(C#N)nc21 (stereo not drawn) [3-[5-Cyano-1-(1,4-dimethyl-1H-indol-3-ylmethyl)-2-oxo-1,2-dihydro-imidazo[4,5-b]pyridin-3-yl]-hexanoic acid]	2.2 nM
Cc1ccc2c(n1)n([C@H](CC(=O)O)c1cccc(Cl)c1)c(=O)n2Cc1cn(C)c2cccc(C)c12 [(R)-3-(3-Chloro-phenyl)-3-[1-(1,4-dimethyl-1H-indol-3-ylmethyl)-5-methyl-2-oxo-1,2-dihydro-imidazo[4,5-b]pyridin-3-yl]-propionic acid]	7.07 nM
Cc1ccc2c(n1)n([C@H](CC(=O)O)c1ccc(Cl)cc1)c(=O)n2Cc1cn(C)c2cccc(C)c12 [(R)-3-(4-Chloro-phenyl)-3-[1-(1,4-dimethyl-1H-indol-3-ylmethyl)-5-methyl-2-oxo-1,2-dihydro-imidazo[4,5-b]pyridin-3-yl]-propionic acid]	0.255 nM
Cc1cc(C)c2c(Cn3c(=O)n([C@H](CC(=O)O)c4ccc(Cl)cc4)c4nc(C)ccc43)nsc2c1 [(R)-3-(4-Chloro-phenyl)-3-[1-(4,6-dimethyl-1,2-benzisothiazol-3-ylmethyl)-5-methyl-2-oxo-1,2-dihydro-imidazo[4,5-b]pyridin-3-yl]-propionic acid]	0.624 nM
Cc1cccc2c1c(Cn1c(=O)n([C@H](CC(=O)O)c3ccc(Cl)cc3)c3nc(C#N)ccc31)cn2C [(R)-3-(4-Chloro-phenyl)-3-[5-cyano-1-(1,4-dimethyl-1H-indol-3-ylmethyl)-2-oxo-1,2-dihydro-imidazo[4,5-b]pyridin-3-yl]-propionic acid]	0.165 nM

Further molecules by falling IC50, results first:

IC50	Compound
6.26 nM	Cc1cc(C)c2c(Cn3c(=O)n([C@H](CC(=O)O)c4cccc(Cl)c4)c4nc(C)ccc43)nsc2c1 [(R)-3-(3-Chloro-phenyl)-3-[1-(4,6-dimethyl-1,2-benzisothiazol-3-ylmethyl)-5-methyl-2-oxo-1,2-dihydro-imidazo[4,5-b]pyridin-3-yl]-propionic acid]
1.45 nM	Cc1cc(C)c2c(Cn3c(=O)n(CC4(C(=O)O)CCCCC4)c4nc(C)ccc43)nsc2c1 [1-[1-(4,6-Dimethyl-1,2-benzisothiazol-3-ylmethyl)-5-methyl-2-oxo-1,2-dihydro-imidazo[4,5-b]pyridin-3-ylmethyl]-cyclohexanecarboxylic acid]
1.06 nM	CCCC(CC(=O)O)n1c(=O)n(Cc2cn(C)c3cc(C)cc(C)c23)c2ccc(C#N)nc21 (stereo not drawn) [3-[5-Cyano-2-oxo-1-(1,4,6-trimethyl-1H-indol-3-ylmethyl)-1,2-dihydro-imidazo[4,5-b]pyridin-3-yl]-hexanoic acid]
1 nM	CCC[C@@H](CC(=O)NS(=O)(=O)C(C)(C)C)n1c(=O)n(Cc2cn(C)c3cccc(C)c23)c2cccnc21 [2-Methyl-propane-2-sulfonic acid {(S)-3-[1-(1,4-dimethyl-1H-indol-3-ylmethyl)-2-oxo-1,2-dihydro-imidazo[4,5-b]pyridin-3-yl]-hexanoyl}-amide]
